Tests used:
human CYP11B1 = target: T1, human CYP11B1 (Homo sapiens, UniProt P15538); test: CYP11B1 assay in V79MZh11B1 cells expressing recombinant human CYP11B1; type: cell-based; settings: mean ± SD of 2 independent experiments; for inhibition at 1 µM: V79MZh11B1, 1 μM; for inhibition at 10 µM: V79MZh11B1, 10 μM; for inhibition at 100 µM: V79MZh11B1, 100 μM; for % CYP11B1 Inhibition: 10 μM
T1 construct: expressed in transfected cells; host or cells: V79MZh11B1 cell line (V79 hamster fibroblasts by own knowledge)
T1 sequence (P15538 25-503): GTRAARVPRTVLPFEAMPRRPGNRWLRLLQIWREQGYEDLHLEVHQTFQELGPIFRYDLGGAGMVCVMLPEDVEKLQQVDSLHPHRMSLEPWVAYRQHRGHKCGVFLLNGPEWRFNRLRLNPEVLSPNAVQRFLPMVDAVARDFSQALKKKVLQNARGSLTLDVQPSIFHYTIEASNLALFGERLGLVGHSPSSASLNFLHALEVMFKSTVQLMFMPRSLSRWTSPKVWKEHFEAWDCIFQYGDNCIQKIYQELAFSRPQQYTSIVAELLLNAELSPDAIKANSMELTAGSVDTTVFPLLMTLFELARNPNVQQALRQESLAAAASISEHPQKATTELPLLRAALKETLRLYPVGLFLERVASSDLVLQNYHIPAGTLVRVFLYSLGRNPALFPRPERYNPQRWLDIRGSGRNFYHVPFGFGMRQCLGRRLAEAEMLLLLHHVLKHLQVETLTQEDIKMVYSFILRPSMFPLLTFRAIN
Protocol: Applicant dissolved ˜10 mg of the Salvia m. Bunge extract (as disclosed in WO2009050451) in the required volume of 100% ethanol or 100% DMSO to obtain a 1% (w/v) extract solution. They tested 5 μL of this solution in a 500 μL assay incubation volume (final ethanol or DMSO conc. of 1%). From this 1% Salvia m. Bunge extract solution, they also prepared a 1:10 and 1:100 dilution in 100% ethanol or 100% DMSO. From these solutions, they tested 5 μL in a 500 μL assay incubation volume.
The V79MZh11B1 cell line, expressing recombinant human CYP11B1, was cultured in Dulbecco's modified Eagle (DME, Sigma) medium supplemented with 5% fetal calf serum (FCS; Sigma), penicillin G (100 U/ml), streptomycin (100 μg/ml), glutamine (2 mM) and sodium pyruvate (1 mM) at 37° C. in 5% CO2 in air. Cells were placed on 24-well cell culture plates (8×10^5 cells per well) and cultured in 1 ml DME medium per well until confluence. On the day of testing, DME medium was removed and 450 μl of fresh DMEM, containing 5 μl of the extract solution in 100% ethanol or 100% DMSO, was added to each well. There was no significant difference in CYP11B1 inhibition between DMSO or ethanol as solvent. Control wells (receiving vehicle or ketoconazole (final concentration of 50 nM) as reference compound to validate each experiment) were treated in the same way without extract solution. After 60 min at 37° C. in the CO2 incubator, the reaction was started by the addition of 50 μl of DMEM containing 100 nM of 11-deoxycorticosterone (plus 0.15 μCi of [1,2-^3H] 11-deoxycorticosterone) as substrate. All measurements were in duplicate. After 25 min, the enzyme reaction was stopped by extracting the supernatant with ethyl acetate. Samples were centrifuged (10,000×g, 10 min), and the upper phase was pipetted into fresh cups. The ethylacetate solvent was evaporated and the residue was dissolved in 40 μl of methanol and analyzed by HPLC. The following formulas were used to determine the level of conversion and percentage of enzyme inhibition.
Given the activity of the extract the Applicant looked at the activity of some of the tanshinones using the methodology described in Example 1.

V79MZh11B1 cells = test: MTT cellular viability assay; type: cell-based
Protocol: In order to check that the inhibition was not due to toxicity, a MTT [3-(4,5-dimethylthiazol-2-yl)-2,5-diphenyl-tetrazolium bromide] cellular viability assay was performed in the same cell line under the incubation conditions used in the CYP11B1 screening assay as set out in Example 2 below:
V79MZh11B1 cells were cultured on 24-well cell culture plates (8×10^5 cells per well) in 1 ml DME medium until confluence. On the day of testing, DME medium was removed and 450 μl of fresh DME medium with 5% FCS, containing 5 μl of the Salvia m. Bunge extract solution in 100% ethanol, was added to each well. Ethanol (1%) and Triton® X-100 (0.0006%) were used as vehicle and positive control (all final concentrations), respectively. All measurements were in quadruplicate. After 60 min at 37° C. in a 5% CO2, 50 μl of fresh DME medium (+5% FCS) was added to each well. After 25 min, medium was replaced by 500 μl fresh DME medium (+5% FCS) to which 25 μl of MTT solution (5 mg per ml PBS, pH 7.2) was added immediately. After 30 min, all medium was removed and the cells were lysed in 250 μl of 0.5% acetic acid (v/v), 10% SDS (w/v) in DMSO. Absorbance of formazan was measured spectrophotometrically at 570 nm wavelength

Row | Molecule | inhibition at 1 µM (human CYP11B1) [%] | inhibition at 10 µM (human CYP11B1) [%] | inhibition at 100 µM (human CYP11B1) [%] | % CYP11B1 Inhibition (human CYP11B1) [%] | Cell viability (MTT conversion into formazan, 1% ethanol = 100%) (V79MZh11B1 cells; Experiment 1, final conc. 0.0006%) [%] | Cell viability (MTT conversion into formazan, 1% ethanol = 100%) (V79MZh11B1 cells; Experiment 2, final conc. 0.0006%) [%] | effect on formazan formation (V79MZh11B1 cells; positive control, 0.0006%)
1 | C[C@H]1COC2=C1C(=O)C(=O)c1c2ccc2c1CCCC2(C)C [Cryptotanshinone] | 6.4 ± 1.6 | 15.4 ± 10.3 | 59.9 ± 22 | – | – | – | –
2 | Cc1cccc2c3c(ccc12)C1=C(C(=O)C3=O)[C@@H](C)CO1 [Dihydrotanshinone, 15,16-dihydrotanshinone I] | 43.3 ± 14.7 | 94 | 100 | 93.6 ± 9.1 | – | – | –
3 | Cc1coc2c1C(=O)C(=O)c1c-2ccc2c1CCCC2(C)C [Tanshinone IIA] | 5.9 ± 0.2 | 16.1 ± 13.5 | 29.4 ± 0.4 | – | – | – | –
4 | Cc1coc2c1C(=O)C(=O)c1c-2ccc2c(C)cccc12 [Tanshinone I] | 19.1 ± 7.9 | 64 | 81.1 ± 6.9 | 63.7 ± 4.5 | – | – | –
5 | Triton X-100 | – | – | – | – | 3 ± 1 | 3 ± 1 | almost fully block formazan formation
